Assays:
NAMPT [1] = biological target: T1, NAMPT (Homo sapiens, UniProt P43490); experiment: Isothermal calorimetric titration (ITC) binding to NAMPT
Text: We verified the direct binding between in vitro expressed and purified NAMPT and NAT by isothermal calorimetric titration (ITC). […] The final data were fitted using a single-point model.

[2] = system: cell death induced by the NAMPT inhibitor FK866; experiment: Protection against cell death induced by the NAMPT inhibitor FK866 (Celltiter-Glo, cellular ATP); type: cell-based; settings: AUC of dose-response curve (0.1-10 μM) relative to AUC of NAT; 10 nM FK866, 72 hours, cell viability by ATP
Procedure: In the latter cell-based assay, we determined the degree of protection of NAT and derivatives thereof against the NAMPT inhibitor FK866. […] After 72 hours, Celltiter-Glo (Promega) was used to detect cellular ATP levels to reflect cell viability and normalized to the DMSO group. A dose-response curve was drawn to evaluate the cytoprotective activity of individual compounds against FK866. Then the area under the dose-response curve (AUC, area under curve) of each compound was calculated and compared with the AUC of NAT, so that the obtained relative value quantitatively expressed the cytoprotective activity of each compound.

NAMPT [3] = biological target: T1, NAMPT; experiment: NAMPT enzyme activity assay coupled with NMNAT1 and ADH (NADH fluorescence); settings: for Relative activation of NAMPT activity: AUC of dose-response curve (0.1, 0.3, 1, 3, 10 μM) relative to AUC of NAT (NAT = 1), 1 μM NAMPT, 200 μM NAM
Procedure: The NAMPT enzyme activity was assayed by a method coupled with the three enzymes: NAMPT, NMNAT1 and alcohol dehydrogenase (ADH). NAMPT synthesizes NMN from NAM and PRPP, NMNAT1 synthesizes NAD from NMN produced in the first step, and ADH converts NAD into detectable fluorescent NADH. […] The reaction was initiated by adding 200 μM nicotinamide (NAM) and mixing gently. The enzyme activity of NAMPT was expressed as the concentration of NADH generated per minute (the molar value was equal to NAD). The relative enzyme activity of NAMPT in each compound-treated group was normalized by the value of the DMSO-treated group, and a dose-response curve was drawn to evaluate the effect of individual compounds on NAMPT enzyme activity. The area under the dose-response curve (AUC, area under curve) was then calculated for individual compound and compared to the AUC of NAT, so that the obtained relative value quantitative Eauc represented the enzyme activation activity of each compound, and the specific calculation formula was shown in FIG. 3.

T1 sequence (P43490 whole entry, species assumed): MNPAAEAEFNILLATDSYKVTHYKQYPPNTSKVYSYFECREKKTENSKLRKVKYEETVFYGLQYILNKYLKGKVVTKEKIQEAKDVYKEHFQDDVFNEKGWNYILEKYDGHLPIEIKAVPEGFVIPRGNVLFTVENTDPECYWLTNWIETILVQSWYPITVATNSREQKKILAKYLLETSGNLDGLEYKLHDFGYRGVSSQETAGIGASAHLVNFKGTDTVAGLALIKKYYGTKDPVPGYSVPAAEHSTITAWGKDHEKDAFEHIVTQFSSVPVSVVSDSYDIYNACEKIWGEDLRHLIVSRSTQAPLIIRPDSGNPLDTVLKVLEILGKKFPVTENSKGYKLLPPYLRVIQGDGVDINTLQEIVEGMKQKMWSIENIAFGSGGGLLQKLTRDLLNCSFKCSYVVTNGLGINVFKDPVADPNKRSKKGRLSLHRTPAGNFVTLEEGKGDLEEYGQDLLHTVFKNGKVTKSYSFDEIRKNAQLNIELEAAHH

binding to NAMPT (in words) (NAMPT [1])	NAMPT activation activity (in words) (NAMPT [3])	Relative activation of NAMPT activity (NAMPT [3])	SMILES	Relative cytoprotective activity [2]
–	–	0.5159	CC(C)(C)c1cccc(CO)c1OCC(=O)Nc1ccc(O)cc1 [Compound 58, 2-(2-(tert-butyl)-6-(hydroxymethyl)phenoxy)-N-(4-hydroxyphenyl)acetamide]	0.8071
–	–	0.5464	COC(=O)c1ccc(C(C)(C)C)c(OCC(=O)Nc2ccc(O)cc2)c1 [Compound 62, 4-(tert-butyl)-3-(24(4-hydroxyphenyl)amino)-2-oxoethoxy)methyl benzoate]	0.7359
–	–	0.4032	CC(C)(C)c1cc(Br)ccc1OCC(=O)Nc1ccc(O)cc1 [Compound 61, 2-(4-bromo-2-(tert-butyl)phenoxy)-N-(4-hydroxyphenyl)acetamide]	1.285
–	–	−0.0799	CC(C)(C)c1ccc(C(=O)O)cc1OCC(=O)Nc1ccc(O)cc1 [Compound 64]	0.2131
–	–	0.00292	COC(=O)c1cccc(C(C)(C)C)c1OCC(=O)Nc1ccc(O)cc1 [Compound 65, 3-(tert-butyl)-2-(2-((4-hydroxyphenyl)amino)-2-oxoethoxy)methyl benzoate]	0.1431
–	–	2.041	CC(C)(C)c1ccc(C(N)=O)cc1OCC(=O)Nc1ccc(O)cc1 [Compound 63]	1.065
–	–	1.2627	CC(C)(C)c1cc(C#N)ccc1OCC(=O)Nc1ccc(O)cc1 [Compound 66, 2-(2-(tert-butyl)-4-cyanophenoxy)-N-(4-hydroxyphenyl)acetamide]	1.569

The remaining lines, values behind:

SMILES	binding to NAMPT (in words) (NAMPT [1])	NAMPT activation activity (in words) (NAMPT [3])	Relative activation of NAMPT activity (NAMPT [3])	Relative cytoprotective activity [2]
CC(C)(C)c1ccccc1OCC(=O)Nc1ccccc1 [Compound 2, 2-(2-(tert-butyl)phenoxy)-N-phenylacetamide]	cannot bind NAMPT	cannot activate NAMPT	−0.2247	0.02446
CC(C)(C)c1ccccc1OCC(=O)Nc1ccc(O)cc1F [Compound 40, 2-(2-(tert-butyl)phenoxy)-N-(2-fluoro-4-hydroxyphenyl)acetamide]	–	–	0.03898	0.1859
CC(C)(C)c1ccccc1OCC(=O)Nc1ccc(O)c(F)c1 [Compound 41, 2-(2-(tert-butyl)phenoxy)-N-(3-fluoro-4-hydroxyphenyl)acetamide]	–	–	0.1348	0.9588
CC(C)c1ccccc1OCC(=O)Nc1ccc(O)cc1 [Compound 24, N-(4-hydroxyphenyl)-2-(2-isopropylphenoxy)acetamide]	–	–	1.35	0.5447
CC(C)(C)c1ccccc1OCC(=O)Nc1ccc(O)cc1Cl [Compound 36, 2-(2-(tert-butyl)phenoxy)-N-(2-chloro-4-hydroxyphenyl)acetamide]	–	–	0.2583	0.06922
CC(C)(C)c1cccc(CNC(=O)Nc2ccc(O)cc2)c1 [Compound 20, 1-(3-tert-butyl)benzyl-3-(4-hydroxyl)phenylurea]	–	–	−0.1622	0.135
CC(C)(C)c1cc(Cl)ccc1OCC(=O)Nc1ccc(O)cc1 [Compound 57, 2-(2-(tert-butyl)-4-chlorophenoxy)-N-(4-hydroxyphenyl)acetamide]	–	–	0.3183	1.099
Cc1cccc(OCC(=O)Nc2ccc(O)cc2)c1 [Compound 19, N-(4-hydroxyphenyl)-2-(m-tolyloxy)acetamide]	–	–	0.1507	0.09517
O=C(COc1ccccc1-c1ccccc1)Nc1ccc(O)cc1 [Compound 17, 2-([1,1′-biphenyl]-2-yloxy)-N-(4-hydroxyphenyl)acetamide]	–	–	0.3353	0.4572
O=C(COc1ccccc1C(F)(F)F)Nc1ccc(O)cc1 [Compound 23, N-(4-hydroxyphenyl)-2-(2-(trifluoromethyl)phenoxy)acetamide]	–	–	0.2389	0.2337
O=C(COc1ccccc1)Nc1ccc(O)cc1 [Compound 16, N-(4-hydroxyphenyl)-2-phenoxyacetamide]	–	–	0.0971	0.1684
CC(C)(C)c1cccc(C(C)(C)C)c1OCC(=O)Nc1ccc(O)cc1 [Compound 18, 2-(2,6-di-tert-butylphenoxy)-N-(4-hydroxyphenyl)acetamide]	–	–	−0.142	0.04793
